Entries after “also recorded” stand apart in the source; their conditions may differ.

The data set is described as follows: In vitro simulated GI digestion (INFOGEST, static), stability by RP-HPLC and LC-MS. The format is in vitro ADME. The note with it: 37°C. As for the experimental part:
In vitro simulated oral, gastric, and small intestinal digestion was adopted from standardized INFOGEST protocol ([Brodkorb et al., 2019]) in three independent replicates. The initial concentration of bacteriocins was selected in order to have sufficient quantity in the digestion mixture to conduct both activity assay by agar well diffusion and by RP-HPLC for quantification.
The entire digestion procedure was performed at 37°C.
Oral conditions: 5 mL of a 8 mg/mL bacteriocin solution (in water) were mixed with simulated salivary fluid [SSF: KCl 15.1 mM, KH2PO4 3.7 mM, NAHCO3 13.6 mM, MgCl2(H2O)6 0.15 mM, (NH4)2CO3 0.06 mM, HCl 1.1mM, CaCl2 (H2O)2 1.5 mM] in 1:1 (v/v) ratio, and the final solution was incubated for 2 min at 37°C.
Gastric conditions: The sample from the oral condition was diluted in 1:1 (v/v) ratio with simulated gastric fluid [SGF: KCl 6.9 mM, KH2PO4 0.9 mM, NAHCO3 25 mM, NaCl 47.2 mM, MgCl2(H2O)6 0.12 mM, (NH4)2CO3 0.5 mM, HCl 15.6 mM, CaCl2 (H2O)2, 0.15 mM] containing pepsin (2000 U/mL in the gastric mixture), and lipase (60 U/mL in the gastric mixture). […]
Small intestine conditions: Samples from gastric conditions were diluted in 1:1 (v/v) ratio with 20 mL of simulated intestinal fluid[SIF KCl 6.8 mM, KH2PO4 0.8 mM, NAHCO3 85 mM, NaCl 38.4 mM, MgCl2(H2O)6 0.33 Mm, HCl 8.4 mM, CaCl2 (H2O)2, 0.6 mM] containing bile salt (10 mmol/L in the final […] mixture) and pancreatin (100 U/mL in final digestion mixture) to acquire a final volume of 40 mL. […] Bacteriocins in the different samples were analyzed by analytical HPLC-UV and liquid-chromatography mass spectrometry (LC-MS/MS). […]
The digestion mixtures were analyzed by LC-MS/MS on an ultra-high-performance LC system (Ultimate 3000 RSLC, Thermo Fisher Scientific) connected to high-resolution electrospray ionization – quadrupole – time of flight (ESI-Q-TOF) mass spectrometer (Maxis II ETD, Bruker Daltonics). […] Data-dependent LC-MS/MS data were acquired in positive ion mode in the mass range m/z 250–2500, using collision induced dissociation with collision energy calculated from m/z and charge states. […]

Turning to `C=C(NC(=O)[C@@H](NC(=O)[C@H](Cc1c[nH]cn1)NC(=O)[C@@H](NC(=O)[C@H](CO)NC(=O)[C@@H]1CS[C@@H](C)[C@H]2NC(=O)[C@H](C)NC(=O)[C@H](NC(=O)[C@H](CCCCN)NC(=O)[C@H](CCSC)NC(=O)[C@H](CC(N)=O)NC(=O)[C@@H]3CS[C@@H](C)[C@@H](NC(=O)[C@H](CCCCN)NC(=O)[C@@H]4CS[C@@H](C)[C@@H](NC(=O)[C@@H]5CSC[C@@H](NC(=O)/C(=C/C)NC(=O)[C@@H](N)[C@@H](C)CC)C(=O)N[C@@H]([C@@H](C)CC)C(=O)NC(=C)C(=O)N[C@@H](CC(C)C)C(=O)N5)C(=O)N5CCC[C@H]5C(=O)NCC(=O)N4)C(=O)NCC(=O)N[C@@H](C)C(=O)N[C@@H](CC(C)C)C(=O)N[C@@H](CCSC)C(=O)NCC(=O)N3)[C@H](C)SC[C@H](NC2=O)C(=O)N[C@@H](CC(N)=O)C(=O)N1)[C@@H](C)CC)C(C)C)C(=O)N[C@@H](CCCCN)C(=O)O` [nisin Z], the “Stability in gastric conditions” value (SGF with pepsin 2000 U/mL and lipase 60 U/mL, pH 3, 90 min, shaking, RP-HPLC and activity, three independent replicates) is listed as “good gastric stability”. Moreover, for the setting “SIF with bile salt 10 mmol/L and pancreatin 100 U/mL, pH 7, 2 h, RP-HPLC and activity, three independent replicates”, the “Stability in small intestinal conditions” value is recorded as “significantly degraded; also recorded: completely degraded”. For the setting “oral + gastric + small intestinal conditions”, the “Stability in the GI tract (whole simulated digestion)” value is recorded as “complete degradation”.

Source of the values: PMC8824275, “Gastrointestinal Stability and Cytotoxicity of Bacteriocins From Gram-Positive and Gram-Negative Bacteria: A Comparative in vitro Study” (Frontiers in Microbiology, 2022).
